Where “and” joins values, the source holds several entries; their conditions need not be identical. Equal values may be shown once. Inconclusive results and toxic doses are left out.
Tested on: P388 leukemia ip, CD2F1 mice, survival T/C
Experiment: NCI In Vivo Anticancer Drug Screen. Data for tumor model P388 Leukemia (intraperitoneal) in CD2F1 (CDF1) mice
Conditions: endpoint: median survival time, higher = longer survival
Outline: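 Mice carrying the transplanted tumor received test compound or vehicle. Survival was recorded in each group, and the value is the treated-group measurement divided by that of the vehicle-treated control group.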

[1] = dose: 100.0 mg/kg/injection, schedule: Q04DX003 (ip), vehicle: saline with Tween-80
[2] = dose: 200.0 mg/kg/injection, schedule: Q04DX003 (ip), vehicle: saline with Tween-80
[3] = dose: 400.0 mg/kg/injection, schedule: Q04DX003 (ip), vehicle: saline with Tween-80
[4] = dose: 60.0 mg/kg/injection, schedule: Q01DX005 (ip), vehicle: saline with Tween-80
[5] = dose: 120.0 mg/kg/injection, schedule: Q01DX005 (ip), vehicle: saline with Tween-80
[6] = dose: 240.0 mg/kg/injection, schedule: Q01DX005 (ip), vehicle: saline with Tween-80
[7] = dose: 50.0 mg/kg/injection, schedule: Q01DX005 (ip), vehicle: saline with Tween-80
[8] = dose: 100.0 mg/kg/injection, schedule: Q01DX005 (ip), vehicle: saline with Tween-80
[9] = dose: 200.0 mg/kg/injection, schedule: Q01DX005 (ip), vehicle: saline with Tween-80
[10] = dose: 50.0 mg/kg/injection, schedule: Q01DX009 (ip), vehicle: saline
[11] = dose: 100.0 mg/kg/injection, schedule: Q01DX009 (ip), vehicle: saline
[12] = dose: 200.0 mg/kg/injection, schedule: Q01DX009 (ip), vehicle: saline
[13] = dose: 100.0 mg/kg/injection, schedule: Q01DX009 (ip), vehicle: saline with Tween-80
[14] = dose: 200.0 mg/kg/injection, schedule: Q01DX009 (ip), vehicle: saline with Tween-80
[15] = dose: 50.0 mg/kg/injection, schedule: Q01DX009 (ip), vehicle: Klucel (hydroxypropylcellulose) (HPC)
[16] = dose: 100.0 mg/kg/injection, schedule: Q01DX009 (ip), vehicle: Klucel (hydroxypropylcellulose) (HPC)
[17] = dose: 200.0 mg/kg/injection, schedule: Q01DX009 (ip), vehicle: Klucel (hydroxypropylcellulose) (HPC)
[18] = dose: 6.25 mg/kg/injection, schedule: Q01DX009 (ip), vehicle: saline with Tween-80
[19] = dose: 12.5 mg/kg/injection, schedule: Q01DX009 (ip), vehicle: saline with Tween-80
[20] = dose: 25.0 mg/kg/injection, schedule: Q01DX009 (ip), vehicle: saline with Tween-80
[21] = dose: 50.0 mg/kg/injection, schedule: Q01DX009 (ip), vehicle: saline with Tween-80

Compound: Cn1c2c(c(=O)c3c4[nH]c5c(c(=O)c4ccc31)CCCC5)CCCC2
- T/C (dose: 50.0 mg/kg/injection, schedule: Q01DX005 (ip), vehicle: Klucel (hydroxypropylcellulose) (HPC)): 108 % of control
- T/C (dose: 50.0 mg/kg/injection, schedule: Q04DX003 (ip), vehicle: saline with Tween-80): 103 % of control
- T/C (dose: 100.0 mg/kg/injection, schedule: Q01DX005 (ip), vehicle: Klucel (hydroxypropylcellulose) (HPC)): 101 % of control
- T/C [1]: 103 % of control and 96 % of control
- T/C (dose: 200.0 mg/kg/injection, schedule: Q01DX005 (ip), vehicle: Klucel (hydroxypropylcellulose) (HPC)): 94 % of control
- T/C [2]: 99 % of control
- T/C [3]: 100 % of control and 94 % of control

Compound: NC(N)=NC(=O)COc1ccc(Cl)cc1Cl
- T/C [4]: 97 % of control
- T/C [5]: 103 % of control
- T/C [6]: 114 % of control

Compound: CCOC(Cn1nc(SC)nc1N)OCC
- T/C (dose: 100.0 mg/kg/injection, schedule: Q04DX002 (ip), vehicle: water): 108 % of control
- T/C (dose: 200.0 mg/kg/injection, schedule: Q04DX002 (ip), vehicle: water): 104 % of control
- T/C (dose: 400.0 mg/kg/injection, schedule: Q04DX002 (ip), vehicle: water): 109 % of control

Compound: CO[C@@]1([C@@H](Cl)c2ccccc2)C(=O)N(C)/C(=C\c2ccccc2)C(=O)N1C
- T/C (dose: 60.0 mg/kg/injection, schedule: Q01DX005 (ip), vehicle: Klucel (hydroxypropylcellulose) (HPC)): 105 % of control
- T/C (dose: 120.0 mg/kg/injection, schedule: Q01DX005 (ip), vehicle: Klucel (hydroxypropylcellulose) (HPC)): 92 % of control
- T/C (dose: 240.0 mg/kg/injection, schedule: Q01DX005 (ip), vehicle: Klucel (hydroxypropylcellulose) (HPC)): 97 % of control

Compound: O=c1sc2ccccc2nc1NNc1ccccc1
- T/C [7]: 90 % of control
- T/C [8]: 90 % of control

Compound: CCOc1c(N=Nc2ccc(OC)cc2)c(-c2ccccc2)nn1C(N)=S
- T/C [7]: 100 % of control
- T/C [8]: 100 % of control
- T/C [9]: 102 % of control

Compound: CC(NNC(=S)N1CCCC1)c1ccccn1 (configuration not stated)
- T/C [7]: 107 % of control
- T/C [8]: 105 % of control

Compound: CCN(CC)CCNC
- T/C (dose: 50.0 mg/kg/injection, schedule: Q01DX005 (ip), vehicle: saline): 99 % of control
- T/C (dose: 100.0 mg/kg/injection, schedule: Q01DX005 (ip), vehicle: saline): 95 % of control
- T/C (dose: 200.0 mg/kg/injection, schedule: Q01DX005 (ip), vehicle: saline): 98 % of control

Compound: S=P(NCCS)(N1CC1)N1CC1
- T/C [1]: 109 % of control
- T/C [2]: 122 % of control
- T/C [3]: 91 % of control

Compound: Cc1c(-c2nc(N)nc(C3CC3)c2C)nc(N)nc1C1CC1
- T/C (dose: 60.0 mg/kg/injection, schedule: Q01DX005 (ip), vehicle: saline): 102 % of control
- T/C (dose: 120.0 mg/kg/injection, schedule: Q01DX005 (ip), vehicle: saline): 100 % of control

Compound: CNC(=S)NNc1ccc(C)cc1
- T/C (dose: 12.5 mg/kg/injection, schedule: Q01DX009 (ip), vehicle: other): 87 % of control
- T/C (dose: 25.0 mg/kg/injection, schedule: Q01DX009 (ip), vehicle: other): 90 % of control
- T/C (dose: 100.0 mg/kg/injection, schedule: Q01DX009 (ip), vehicle: other): 92 % of control
- T/C (dose: 200.0 mg/kg/injection, schedule: Q01DX009 (ip), vehicle: other): 101 % of control

Compound: CCCCCC1SCC(=O)N1c1nncs1 (configuration not stated)
- T/C [4]: 106 % of control
- T/C [5]: 103 % of control
- T/C [6]: 113 % of control

Compound: CCN(Cc1ccc(CN(CC)C(=O)c2sc3ccccc3c2Cl)cc1)C(=O)c1sc2ccccc2c1Cl
- T/C [10]: 101 % of control
- T/C [11]: 100 % of control
- T/C [12]: 93 % of control

Compound: O=C(Nc1ccc(C2=NCCN2)cc1)C1CCC(C(=O)Nc2ccc(C3=NCCN3)cc2)CC1 (configuration not stated)
- T/C [13]: 227 % of control
- T/C [1]: 154 % of control
- T/C [14]: 209 % of control
- T/C [2]: 186 % of control
- T/C (dose: 264.0 mg/kg/injection, schedule: Q04DX003 (ip), vehicle: saline with Tween-80): 213 % of control
- T/C (dose: 400.0 mg/kg/injection, schedule: Q01DX009 (ip), vehicle: saline with Tween-80): 118 % of control
- T/C [3]: 231 % of control and 254 % of control
- T/C (dose: 600.0 mg/kg/injection, schedule: Q04DX003 (ip), vehicle: saline with Tween-80): 236 % of control

Compound: C[N+]1=C(/C=C/Nc2cc3c4ccccc4ccc3c3ccccc23)C(C)(C)c2ccccc21
- T/C [15]: 117 % of control
- T/C [16]: 119 % of control
- T/C [17]: 117 % of control

Compound: Cc1cccc(NC(=O)Oc2ccc(Cl)c3cccnc23)c1
- T/C [15]: 112 % of control
- T/C [16]: 102 % of control
- T/C [17]: 114 % of control

Compound: CCCCc1c(C#N)c(=O)n2c(N)c(C(=O)OCC)cnc2c1SC
- T/C (dose: 3.75 mg/kg/injection, schedule: Q01DX005 (ip), vehicle: saline with Tween-80): 104 % of control and 108 % of control
- T/C (dose: 7.5 mg/kg/injection, schedule: Q01DX005 (ip), vehicle: saline with Tween-80): 117 % of control and 120 % of control
- T/C (dose: 15.0 mg/kg/injection, schedule: Q01DX005 (ip), vehicle: saline with Tween-80): 120 % of control
- T/C [4]: 98 % of control
- T/C [5]: 92 % of control

Compound: O=[N+]([O-])c1nc2ccccc2[nH]1
- T/C [18]: 101 % of control
- T/C [19]: 101 % of control
- T/C [20]: 111 % of control
- T/C [21]: 108 % of control

Compound: C[n+]1cc(Cl)cc(Br)c1
- T/C (dose: 25.0 mg/kg/injection, schedule: Q01DX005 (ip), vehicle: saline): 117 % of control

Compound: COC(=O)c1cc(-c2ccc(F)cc2)[nH]c(=O)c1C#N
- T/C [4]: 97 % of control
- T/C [5]: 106 % of control
- T/C [6]: 104 % of control

Compound: CC(C)(C)c1cc(/C=N\O)cc(C(C)(C)C)c1O
- T/C [10]: 98 % of control
- T/C [11]: 107 % of control
- T/C [12]: 107 % of control

Compound: NC(=O)c1nc[nH]c1F
- T/C [18]: 102 % of control
- T/C [19]: 102 % of control
- T/C [20]: 103 % of control
- T/C [21]: 104 % of control

Compound: CC(C)CC([NH-])C(=O)O.[C-]#[O+].[C-]#[O+].[Rh] (configuration not stated)
- T/C [18]: 113 % of control
- T/C [19]: 115 % of control
- T/C [20]: 109 % of control

Compound: CC(C)(C)C(=O)CC(=O)C(C)(C)C.[Cl][Sb]1([Cl])[c]2ccccc2Cc2cccc[c]21
- T/C [21]: 100 % of control
- T/C [13]: 108 % of control
- T/C [14]: 107 % of control

Compound: O=CNC(Cc1cnc[nH]1)C(=O)O (configuration not stated)
- T/C [7]: 100 % of control
- T/C [8]: 98 % of control
- T/C [9]: 97 % of control

Compound: OCCN(CCO)C1c2ccccc2-c2ccccc21
- T/C [7]: 98 % of control
- T/C [8]: 89 % of control
- T/C [9]: 90 % of control

Compound: CC(C)(C)NCC(O)c1ccc(O)c(NC=O)c1 (configuration not stated)
- T/C [21]: 110 % of control
- T/C [13]: 100 % of control
- T/C [14]: 102 % of control

Compound: CCCCCCCCCCCCCC(=O)Nc1ncc([N+](=O)[O-])s1
- T/C [15]: 94 % of control
- T/C [16]: 94 % of control
- T/C [17]: 100 % of control

Compound: OCC1CCCN1 (configuration not stated)
- T/C (dose: 100.0 mg/kg/injection, schedule: Q04DX002 (ip), vehicle: saline): 102 % of control
- T/C (dose: 200.0 mg/kg/injection, schedule: Q04DX002 (ip), vehicle: saline): 96 % of control

Compound: COc1cccc2c1C(=O)c1c(O)c3c(c(O)c1C2=O)CC(O)(/C(C)=N/NC(=O)CCCC(=O)N/N=C(\C)C1(O)Cc2c(O)c4c(c(O)c2C(OC2CC(N)C(O)C(C)O2)C1)C(=O)c1c(OC)cccc1C4=O)CC3OC1CC(N)C(O)C(C)O1 (configuration not stated)
- T/C (dose: 0.2 mg/kg/injection, schedule: Q01DX009 (ip), vehicle: water): 105 % of control
- T/C (dose: 0.39 mg/kg/injection, schedule: Q01DX009 (ip), vehicle: water): 90 % of control
- T/C (dose: 0.78 mg/kg/injection, schedule: Q01DX009 (ip), vehicle: water): 150 % of control
- T/C (dose: 1.56 mg/kg/injection, schedule: Q01DX009 (ip), vehicle: water): 188 % of control
- T/C (dose: 3.13 mg/kg/injection, schedule: Q01DX009 (ip), vehicle: water): 167 % of control

Compound: CCCCCCCCCCCCCCCCS(=O)(=O)N/N=C(/c1ccc(Cl)cc1)N1CCCCC1
- T/C [15]: 100 % of control
- T/C [16]: 102 % of control
- T/C [17]: 92 % of control

Compound: c1onc2c1C1CC3CC(C1)CC2C3
- T/C [15]: 96 % of control
- T/C [16]: 89 % of control
- T/C [17]: 92 % of control

Compound: COc1ccccc1/C=N\NC(=O)C(=O)N/N=C\c1ccccc1OC
- T/C [15]: 86 % of control
- T/C [16]: 90 % of control
- T/C [17]: 98 % of control

Compound: OC(CNc1ccccc1Cl)COc1ccc(Cl)cc1Cl (configuration not stated)
- T/C [21]: 94 % of control
- T/C [13]: 95 % of control
- T/C [14]: 106 % of control
